Results on one molecule are retold here after patent US8697876B2, “Compositions and methods of synthesis of pyridinolypiperidine 5-HT1F agonists” (Colucid Pharmaceuticals, Inc., priority 2010, dated 2014).

The series in a line: Solid-state properties of Form A (hygroscopicity). The class given is physicochemical. The following applies: crystalline anhydrate.

For the molecule `CN1CCC(C(=O)c2cccc(NC(=O)c3c(F)cc(F)cc3F)n2)CC1.O=C(O)CCC(=O)O` [Form A, 2,4,6-Trifluoro-N-(6-(1-methylpiperidine-4-carbonyl)pyridine-2-yl)benzamide Hemisuccinate], the hygroscopicity entry is “non-hygroscopic”.
